Key:
Conditions in all cases: 72 h
U2OS [1] = assay: cell viability relative to DMSO; higher = less toxic
Calu-3 [2] = assay: as above
Caco-2 [3] = assay: as above
HepG2 [4] = assay: as above
Vero E6 [5] = assay: as above
U2OS [6] = assay: relative viability EC50 (midpoint between 100% and the lowest measured viability); higher = less toxic
HepG2 [7] = assay: as above
Vero E6 [8] = assay: as above
U2OS [9] = assay: drug sensitivity score (DSS) for viability; higher = more toxic; extreme values may be limits of the assay
Calu-3 [10] = assay: as above
Caco-2 [11] = assay: as above
HepG2 [12] = assay: as above
Vero E6 [13] = assay: as above
Calu-3 [14] = assay: relative viability EC50 (midpoint between 100% and the lowest measured viability); higher = less toxic
Caco-2 [15] = assay: as above

| Compound | cell viability (U2OS [1]; 1 nM) [%] | cell viability (U2OS [1]; 10 nM) [%] | cell viability (U2OS [1]; 100 nM) [%] | cell viability (U2OS [1]; 1000 nM) [%] | cell viability (U2OS [1]; 10000 nM) [%] | cell viability (Calu-3 [2]; 1 nM) [%] | cell viability (Calu-3 [2]; 10 nM) [%] | cell viability (Calu-3 [2]; 100 nM) [%] | cell viability (Calu-3 [2]; 1000 nM) [%] | cell viability (Calu-3 [2]; 10000 nM) [%] | cell viability (Caco-2 [3]; 1 nM) [%] | cell viability (Caco-2 [3]; 10 nM) [%] | cell viability (Caco-2 [3]; 100 nM) [%] | cell viability (Caco-2 [3]; 1000 nM) [%] | cell viability (Caco-2 [3]; 10000 nM) [%] | cell viability (HepG2 [4]; 1 nM) [%] | cell viability (HepG2 [4]; 10 nM) [%] | cell viability (HepG2 [4]; 100 nM) [%] | cell viability (HepG2 [4]; 1000 nM) [%] | cell viability (HepG2 [4]; 10000 nM) [%] | cell viability (Vero E6 [5]; 1 nM) [%] | cell viability (Vero E6 [5]; 10 nM) [%] | cell viability (Vero E6 [5]; 100 nM) [%] | cell viability (Vero E6 [5]; 1000 nM) [%] | cell viability (Vero E6 [5]; 10000 nM) [%] | relative viability EC50 (U2OS [6]) [µM] | relative viability EC50 (HepG2 [7]) [µM] | relative viability EC50 (Vero E6 [8]) [µM] | drug sensitivity score (U2OS [9]) | drug sensitivity score (Calu-3 [10]) | drug sensitivity score (Caco-2 [11]) | drug sensitivity score (HepG2 [12]) | drug sensitivity score (Vero E6 [13]) | relative viability EC50 (Calu-3 [14]) [µM] | relative viability EC50 (Caco-2 [15]) [µM] |
| --- | --- | --- | --- | --- | --- | --- | --- | --- | --- | --- | --- | --- | --- | --- | --- | --- | --- | --- | --- | --- | --- | --- | --- | --- | --- | --- | --- | --- | --- | --- | --- | --- | --- | --- | --- |
| CN1c2ccccc2C(=O)N2CCc3c([nH]c4ccccc34)C21 (stereo in doubt) [evodiamine] | 94.7 | 93.7 | 99.7 | 83.6 | 43 | 96.8 | 89.9 | 96.7 | 80.6 | 62.4 | 101 | 99.6 | 104 | 76.1 | 55.7 | 91.3 | 94.5 | 98.6 | 47.3 | 36.3 | 89.9 | 100 | 95.8 | 74.1 | 33.7 | 1.44 | 0.508 | 1.27 | 5.5 | 3.8 | 5.2 | 9.9 | 6.7 | – | – |
| C[C@H]1[C@@H](O)O[C@@H]2O[C@@]3(C)CC[C@H]4[C@H](C)CC[C@@H]1[C@@]24OO3 [ARTENIMOL] | 96.5 | 104 | 92.4 | 82.4 | 31.8 | 93.8 | 94.8 | 97.5 | 101 | 98.6 | 100 | 102 | 100 | 88.9 | 79.8 | 106 | 100 | 96.4 | 97.2 | 71.8 | 115 | 99.1 | 101 | 103 | 95.9 | 1.57 | – | > 10 | 6.3 | 0 | 1.7 | 1.6 | 0 | > 10 | > 10 |
| Cn1cc(CCn2cnc(-c3cnn(C)c3)c2-c2ccc(C#N)cc2)cn1 [BAZ2-ICR] | – | – | – | – | – | – | – | – | – | – | – | – | – | – | – | – | – | – | – | – | – | – | – | – | – | – | > 10 | > 10 | 0 | 0 | 0 | 0 | 0 | > 10 | > 10 |
| Cc1ccccc1C(=O)c1ccc(Nc2ccc(Br)cc2N)cc1Cl [EO-1428] | 98.5 | 101 | 96.1 | 96.2 | 82.8 | 93 | 96.6 | 83.4 | 90.8 | 89.5 | 103 | 95.5 | 92.3 | 85.7 | 74 | 97 | 96 | 98.3 | 85.6 | 108 | 96.7 | 101 | 93.4 | 80.7 | 92.2 | > 10 | > 10 | > 10 | 0.7 | 0 | 2.4 | 0 | 0.7 | > 10 | – |
